Numbers after ± are expanded uncertainties.
Legend:
[1] = xn = mol fraction of the nth substance listed; conditions: 101 kPa, Liquid
[2] = molar heat capacity at constant pressure; xn = mol fraction of the nth substance listed; conditions: 101 kPa, Liquid, Small sample (50 mg) DSC

CCn1cc[n+](C)c1.O=S(=O)([O-])C(F)(F)F [1-ethyl-3-methylimidazolium trifluoromethanesulfonate] + O
Conditions	electrical conductivity, [1] [S/m]	molar heat capacity at constant pressure, [2] [J/K/mol]
293.2 K, x1 = 0.2	3.437 ± 0.012	–
293.2 K, x1 = 0.4	2.35 ± 0.042	–
293.2 K, x1 = 0.6	1.64 ± 0.026	–
293.2 K, x1 = 0.8	1.17 ± 0.05	–
298.2 K, x1 = 0.2	3.927 ± 0.012	–
298.2 K, x1 = 0.4	2.67 ± 0.06	–
298.2 K, x1 = 0.6	1.86 ± 0.028	–
298.2 K, x1 = 0.8	1.34 ± 0.042	–
303.2 K, x1 = 0.1	–	102.6 ± 1.7
303.2 K, x1 = 0.2	4.47 ± 0.02	133.3 ± 2.1
303.2 K, x1 = 0.4	3.05 ± 0.07	197.5 ± 4.6
303.2 K, x1 = 0.6	2.12 ± 0.034	260.1 ± 4.2
303.2 K, x1 = 0.8	1.56 ± 0.054	320.1 ± 5
303.2 K, x1 = 0.9	–	351 ± 5.4
308.2 K, x1 = 0.1	–	103 ± 2
308.2 K, x1 = 0.2	5.037 ± 0.03	134.1 ± 2.1
308.2 K, x1 = 0.4	3.46 ± 0.06	198.7 ± 5.2
308.2 K, x1 = 0.6	2.42 ± 0.042	261.6 ± 4.1
308.2 K, x1 = 0.8	1.79 ± 0.06	321.9 ± 5
308.2 K, x1 = 0.9	–	352.7 ± 5.5
313.2 K, x1 = 0.1	–	103.4 ± 2
313.2 K, x1 = 0.2	5.613 ± 0.012	134.7 ± 2.1
313.2 K, x1 = 0.4	3.87 ± 0.07	199.9 ± 3.6
313.2 K, x1 = 0.6	2.73 ± 0.042	263.2 ± 4.8
313.2 K, x1 = 0.8	2.01 ± 0.05	323.7 ± 5
313.2 K, x1 = 0.9	–	354.8 ± 5.5
318.2 K, x1 = 0.1	–	103.8 ± 2
318.2 K, x1 = 0.2	6.213 ± 0.024	135.5 ± 2.1
318.2 K, x1 = 0.4	4.31 ± 0.06	201.3 ± 3.1
318.2 K, x1 = 0.6	3.047 ± 0.012	264.5 ± 4.1
318.2 K, x1 = 0.8	2.27 ± 0.07	325.4 ± 5
318.2 K, x1 = 0.9	–	356.7 ± 5.5
323.2 K, x1 = 0.1	–	104.3 ± 1.9
323.2 K, x1 = 0.2	6.837 ± 0.03	136.4 ± 2.2
323.2 K, x1 = 0.4	4.77 ± 0.06	202.4 ± 3.1
323.2 K, x1 = 0.6	3.393 ± 0.024	266 ± 4.1
323.2 K, x1 = 0.8	2.55 ± 0.072	327.3 ± 5.1
323.2 K, x1 = 0.9	–	358.4 ± 5.6
328.2 K, x1 = 0.1	–	105 ± 1.9
328.2 K, x1 = 0.2	7.47 ± 0.034	137.1 ± 2.3
328.2 K, x1 = 0.4	5.24 ± 0.07	203.8 ± 3.2
328.2 K, x1 = 0.6	3.757 ± 0.03	267.6 ± 4.4
328.2 K, x1 = 0.8	2.84 ± 0.09	329.1 ± 5.5
328.2 K, x1 = 0.9	–	360.2 ± 5.6
333.2 K, x1 = 0.1	–	105.5 ± 2
333.2 K, x1 = 0.2	8.113 ± 0.024	138 ± 2.4
333.2 K, x1 = 0.4	5.72 ± 0.09	205.2 ± 3.2
333.2 K, x1 = 0.6	4.127 ± 0.03	269.1 ± 4.2
333.2 K, x1 = 0.8	3.14 ± 0.092	331.1 ± 6.3
333.2 K, x1 = 0.9	–	362 ± 5.6
338.2 K, x1 = 0.1	–	106.1 ± 1.9
338.2 K, x1 = 0.2	8.76 ± 0.02	138.8 ± 2.4
338.2 K, x1 = 0.4	6.22 ± 0.084	206.4 ± 3.5
338.2 K, x1 = 0.6	4.513 ± 0.042	270.9 ± 4.2
338.2 K, x1 = 0.8	3.46 ± 0.092	332.7 ± 6.3
338.2 K, x1 = 0.9	–	364 ± 5.6
343.2 K, x1 = 0.1	–	106.4 ± 2.1
343.2 K, x1 = 0.2	9.413 ± 0.012	139.8 ± 2.4
343.2 K, x1 = 0.4	6.71 ± 0.08	207.7 ± 4.2
343.2 K, x1 = 0.6	4.903 ± 0.042	272.3 ± 4.2
343.2 K, x1 = 0.8	3.78 ± 0.1	334.6 ± 6.5
343.2 K, x1 = 0.9	–	365.9 ± 5.8
348.2 K, x1 = 0.1	–	107 ± 1.8
348.2 K, x1 = 0.2	10.05 ± 0.02	140.6 ± 2.4
348.2 K, x1 = 0.4	7.22 ± 0.088	208.9 ± 4.1
348.2 K, x1 = 0.6	5.307 ± 0.05	273.8 ± 4.9
348.2 K, x1 = 0.8	4.13 ± 0.13	336.4 ± 6.5
348.2 K, x1 = 0.9	–	368 ± 5.7
353.2 K, x1 = 0.1	–	107.5 ± 1.8
353.2 K, x1 = 0.2	10.71 ± 0.042	141.5 ± 2.7
353.2 K, x1 = 0.4	7.75 ± 0.09	210.1 ± 5.5
353.2 K, x1 = 0.6	5.743 ± 0.03	275.5 ± 4.3
353.2 K, x1 = 0.8	4.48 ± 0.09	338.2 ± 6.5
353.2 K, x1 = 0.9	–	369.8 ± 6.1
